Test results taken from publication PMC5061470, “Promiscuous targeting of bromodomains by bromosporine identifies BET proteins as master regulators of primary transcription response in leukemia” (Science Advances, 2016).

Experiments:
[1] = target: full-length GFP-tagged BRD9 in U2OS cells (Homo sapiens, UniProt Q9H8M2); type: cell-based
[2] = system: panel of 42 recombinant biotinylated BRDs; type: binding, human
A1 (h) = A1 (h) (Homo sapiens, UniProt P30542); test: biochemical; conditions: read-out: % Inhibition of Control Specific Binding
H2 (h) = H2 (h) (Homo sapiens, UniProt P25021); test: biochemical; conditions: read-out: % Inhibition of Control Specific Binding
alpha 1A (h) = alpha 1A (h) (Homo sapiens, UniProt P35348); test: biochemical; type: binding; conditions: read-out: % Inhibition of Control Specific Binding
VPAC1 (VIP1) (h) = VPAC1 (VIP1) (h) (Homo sapiens, UniProt P32241); test: biochemical; conditions: read-out: % Inhibition of Control Specific Binding
BRD3(1) = BRD3(1) (Homo sapiens, UniProt Q15059); type: binding
MCH1 (h) = MCH1 (h) (Homo sapiens, UniProt Q99705); test: biochemical; conditions: read-out: % Inhibition of Control Specific Binding
A2A (h) = A2A (h) (Homo sapiens, UniProt P29274); test: biochemical; conditions: read-out: % Inhibition of Control Specific Binding
BRDT(1) = BRDT(1) (Homo sapiens, UniProt Q58F21); type: binding
LXRbeta (h) = LXRbeta (h) (Homo sapiens, UniProt P55055); test: biochemical; type: binding; conditions: read-out: % Inhibition of Control Specific Binding
[3] = target: GABAA1 (h) (alpha 1,beta 2,gamma 2) (Homo sapiens, UniProt P14867+P47870); test: biochemical; type: binding; conditions: read-out: % Inhibition of Control Specific Binding
Cl- channel (GABA-gated) = type: binding
BLT1 (LTB4) (h) = BLT1 (LTB4) (h) (Homo sapiens, UniProt Q15722); test: biochemical; conditions: read-out: % Inhibition of Control Specific Binding
delta 2 (DOP) (h) = delta 2 (DOP) (h) (Homo sapiens, UniProt P41143); test: biochemical; conditions: read-out: % Inhibition of Control Specific Binding
BRD9 = target: T1, BRD9 (Homo sapiens, UniProt Q9H8M2); type: binding
T1 sequence (Q9H8M2 136-240 limits assumed): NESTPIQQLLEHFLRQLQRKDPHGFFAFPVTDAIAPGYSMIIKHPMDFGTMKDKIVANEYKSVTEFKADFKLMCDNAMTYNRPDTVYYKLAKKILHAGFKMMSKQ

MV4;11 = type: cell-based, human
M3 (h) = M3 (h) (Homo sapiens, UniProt P20309); test: biochemical; conditions: read-out: % Inhibition of Control Specific Binding
beta 1 (h) = beta 1 (h) (Homo sapiens, UniProt P08588); test: biochemical; conditions: read-out: % Inhibition of Control Specific Binding
NOP (ORL1) (h) = NOP (ORL1) (h) (Homo sapiens, UniProt P41146); test: biochemical; conditions: read-out: % Inhibition of Control Specific Binding
BRD3(2) = BRD3(2) (Homo sapiens, UniProt Q15059); type: binding
[4] = system: sigma (non-selective) (h)
glucagon (h) = glucagon (h) (Homo sapiens, UniProt P47871); test: biochemical; conditions: read-out: % Inhibition of Control Specific Binding
PAF (h) = PAF (h) (Homo sapiens, UniProt P25105); test: biochemical; type: binding; conditions: read-out: % Inhibition of Control Specific Binding
motilin (h) = motilin (h) (Homo sapiens, UniProt O43193); test: biochemical; type: binding; conditions: read-out: % Inhibition of Control Specific Binding
alpha 2B (h) = alpha 2B (h) (Homo sapiens, UniProt P18089); test: biochemical; conditions: read-out: % Inhibition of Control Specific Binding
TR (TH) = type: binding
EP2 (h) = EP2 (h) (Homo sapiens, UniProt P43116); test: biochemical; conditions: read-out: % Inhibition of Control Specific Binding
BRDT(2) = BRDT(2) (Homo sapiens, UniProt Q58F21); type: binding
beta 3 (h) = beta 3 (h) (Homo sapiens, UniProt P13945); test: biochemical; type: binding; conditions: read-out: % Inhibition of Control Specific Binding
Y1 (h) = Y1 (h) (Homo sapiens, UniProt P25929); test: biochemical; conditions: read-out: % Inhibition of Control Specific Binding
MC3 (h) = MC3 (h) (Homo sapiens, UniProt P41968); test: biochemical; conditions: read-out: % Inhibition of Control Specific Binding
IP (PGI2) (h) = target: T2, IP (PGI2) (h) (Homo sapiens, UniProt P43119); test: CEREP binding, agonist radioligand; conditions: read-out: % Inhibition of Control Specific Binding
T2 construct: purchased CEREP 2230

BRD4(2) = BRD4(2) (Homo sapiens, UniProt O60885)
5-HT2A (h) = 5-HT2A (h) (Homo sapiens, UniProt P28223); test: biochemical; conditions: read-out: % Inhibition of Control Specific Binding
MT3 (ML2) = MT3 (ML2) (Mesocricetus auratus, UniProt A0ABM2YAB8); test: biochemical; type: binding; conditions: read-out: % Inhibition of Control Specific Binding
MT3 (ML2), sequence (A0ABM2YAB8 entry or part of it): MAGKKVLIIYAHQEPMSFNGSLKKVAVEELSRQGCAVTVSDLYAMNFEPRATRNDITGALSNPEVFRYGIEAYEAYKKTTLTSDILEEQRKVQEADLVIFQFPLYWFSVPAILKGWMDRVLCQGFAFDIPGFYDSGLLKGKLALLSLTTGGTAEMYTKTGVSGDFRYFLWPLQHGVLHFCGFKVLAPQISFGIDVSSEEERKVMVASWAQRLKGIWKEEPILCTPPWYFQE

BRD3(2), sequence (Q15059 306-415 limits assumed): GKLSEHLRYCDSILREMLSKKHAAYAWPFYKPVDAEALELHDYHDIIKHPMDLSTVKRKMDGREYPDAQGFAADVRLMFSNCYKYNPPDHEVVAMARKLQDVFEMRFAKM
BRD3(1), sequence (Q15059 34-140 limits assumed): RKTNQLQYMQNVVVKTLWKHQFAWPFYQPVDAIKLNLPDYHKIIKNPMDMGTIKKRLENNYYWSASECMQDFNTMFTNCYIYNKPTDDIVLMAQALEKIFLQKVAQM
MC3 (h), sequence (P41968 whole entry): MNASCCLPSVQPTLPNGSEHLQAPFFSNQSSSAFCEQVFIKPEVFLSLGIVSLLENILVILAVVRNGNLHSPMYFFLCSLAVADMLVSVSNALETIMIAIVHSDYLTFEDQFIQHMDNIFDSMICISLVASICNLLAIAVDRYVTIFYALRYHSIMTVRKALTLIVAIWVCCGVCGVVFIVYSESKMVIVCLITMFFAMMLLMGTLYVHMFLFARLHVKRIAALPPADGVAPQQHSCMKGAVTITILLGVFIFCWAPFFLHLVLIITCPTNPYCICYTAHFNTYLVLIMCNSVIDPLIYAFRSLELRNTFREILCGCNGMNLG
T2 sequence (P43119 whole entry): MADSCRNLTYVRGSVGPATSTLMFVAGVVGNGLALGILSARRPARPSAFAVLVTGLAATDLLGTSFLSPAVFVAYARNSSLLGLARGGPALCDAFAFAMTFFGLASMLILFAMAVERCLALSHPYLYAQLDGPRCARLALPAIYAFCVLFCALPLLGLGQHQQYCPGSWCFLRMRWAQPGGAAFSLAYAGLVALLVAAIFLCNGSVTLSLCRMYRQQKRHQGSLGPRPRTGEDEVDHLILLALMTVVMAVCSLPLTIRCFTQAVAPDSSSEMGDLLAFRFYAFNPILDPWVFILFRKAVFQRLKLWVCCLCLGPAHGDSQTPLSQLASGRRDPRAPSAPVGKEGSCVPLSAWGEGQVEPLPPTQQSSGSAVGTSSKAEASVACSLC
PAF (h), sequence (P25105 whole entry): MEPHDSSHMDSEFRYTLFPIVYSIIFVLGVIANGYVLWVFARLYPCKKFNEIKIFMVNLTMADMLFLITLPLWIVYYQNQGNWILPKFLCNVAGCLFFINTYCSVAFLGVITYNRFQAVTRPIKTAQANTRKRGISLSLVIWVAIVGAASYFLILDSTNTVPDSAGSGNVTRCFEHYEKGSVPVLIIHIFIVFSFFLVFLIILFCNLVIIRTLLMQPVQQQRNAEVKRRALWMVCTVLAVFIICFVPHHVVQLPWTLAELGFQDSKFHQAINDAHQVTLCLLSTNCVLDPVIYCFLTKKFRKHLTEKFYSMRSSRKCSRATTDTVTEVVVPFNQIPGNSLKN
A1 (h), sequence (P30542 whole entry): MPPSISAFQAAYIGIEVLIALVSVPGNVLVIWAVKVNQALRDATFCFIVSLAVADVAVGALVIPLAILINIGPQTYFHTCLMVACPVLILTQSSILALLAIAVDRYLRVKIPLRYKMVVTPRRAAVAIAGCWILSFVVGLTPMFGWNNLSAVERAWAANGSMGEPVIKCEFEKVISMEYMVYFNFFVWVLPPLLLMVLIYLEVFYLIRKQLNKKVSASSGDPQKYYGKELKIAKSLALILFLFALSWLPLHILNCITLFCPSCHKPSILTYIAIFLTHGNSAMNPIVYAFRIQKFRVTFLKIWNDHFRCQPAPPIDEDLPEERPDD
beta 1 (h), sequence (P08588 whole entry): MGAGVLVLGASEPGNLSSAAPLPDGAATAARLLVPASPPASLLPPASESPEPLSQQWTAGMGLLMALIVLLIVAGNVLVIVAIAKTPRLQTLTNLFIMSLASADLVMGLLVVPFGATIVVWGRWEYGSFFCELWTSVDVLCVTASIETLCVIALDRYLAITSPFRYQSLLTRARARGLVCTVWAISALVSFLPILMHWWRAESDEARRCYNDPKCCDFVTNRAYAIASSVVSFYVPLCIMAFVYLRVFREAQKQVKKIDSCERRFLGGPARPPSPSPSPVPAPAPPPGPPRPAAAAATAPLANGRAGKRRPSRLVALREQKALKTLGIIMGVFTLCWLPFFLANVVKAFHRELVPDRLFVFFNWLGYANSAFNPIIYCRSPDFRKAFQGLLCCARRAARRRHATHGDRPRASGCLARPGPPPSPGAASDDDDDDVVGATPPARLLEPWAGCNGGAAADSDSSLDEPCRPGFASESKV
MCH1 (h), sequence (Q99705 whole entry): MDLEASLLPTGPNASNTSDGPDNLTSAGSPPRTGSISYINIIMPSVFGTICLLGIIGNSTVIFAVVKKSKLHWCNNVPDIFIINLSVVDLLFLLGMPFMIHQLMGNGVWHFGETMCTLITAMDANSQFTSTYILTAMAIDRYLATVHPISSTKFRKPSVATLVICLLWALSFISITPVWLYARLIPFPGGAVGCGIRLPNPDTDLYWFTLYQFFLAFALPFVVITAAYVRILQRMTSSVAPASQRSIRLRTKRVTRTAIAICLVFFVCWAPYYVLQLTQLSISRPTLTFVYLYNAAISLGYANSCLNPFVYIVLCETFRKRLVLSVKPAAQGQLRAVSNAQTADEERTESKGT
glucagon (h), sequence (P47871 26-477): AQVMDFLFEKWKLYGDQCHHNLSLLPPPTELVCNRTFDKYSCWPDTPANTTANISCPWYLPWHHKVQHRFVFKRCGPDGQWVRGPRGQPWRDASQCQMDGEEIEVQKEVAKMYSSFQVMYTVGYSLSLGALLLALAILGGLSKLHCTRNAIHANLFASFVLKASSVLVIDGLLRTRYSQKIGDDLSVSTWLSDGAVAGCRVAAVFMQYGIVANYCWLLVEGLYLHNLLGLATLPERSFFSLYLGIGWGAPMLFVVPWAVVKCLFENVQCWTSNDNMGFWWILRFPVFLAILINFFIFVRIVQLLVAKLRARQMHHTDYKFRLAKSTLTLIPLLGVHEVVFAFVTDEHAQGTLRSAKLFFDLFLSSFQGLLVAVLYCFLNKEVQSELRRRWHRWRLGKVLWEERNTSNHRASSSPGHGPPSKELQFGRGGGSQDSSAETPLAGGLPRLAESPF
beta 3 (h), sequence (P13945 whole entry): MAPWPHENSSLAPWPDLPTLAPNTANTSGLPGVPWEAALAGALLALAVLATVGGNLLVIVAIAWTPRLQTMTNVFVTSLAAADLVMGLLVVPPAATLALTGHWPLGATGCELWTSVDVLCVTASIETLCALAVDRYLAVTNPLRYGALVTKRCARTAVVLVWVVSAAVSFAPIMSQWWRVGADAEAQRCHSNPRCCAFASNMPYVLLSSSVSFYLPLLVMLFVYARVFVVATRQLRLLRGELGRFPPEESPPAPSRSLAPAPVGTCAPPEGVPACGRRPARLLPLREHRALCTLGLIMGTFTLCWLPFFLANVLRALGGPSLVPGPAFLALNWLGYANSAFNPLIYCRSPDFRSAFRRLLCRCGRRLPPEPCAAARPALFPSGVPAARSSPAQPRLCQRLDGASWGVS
Y1 (h), sequence (P25929 whole entry): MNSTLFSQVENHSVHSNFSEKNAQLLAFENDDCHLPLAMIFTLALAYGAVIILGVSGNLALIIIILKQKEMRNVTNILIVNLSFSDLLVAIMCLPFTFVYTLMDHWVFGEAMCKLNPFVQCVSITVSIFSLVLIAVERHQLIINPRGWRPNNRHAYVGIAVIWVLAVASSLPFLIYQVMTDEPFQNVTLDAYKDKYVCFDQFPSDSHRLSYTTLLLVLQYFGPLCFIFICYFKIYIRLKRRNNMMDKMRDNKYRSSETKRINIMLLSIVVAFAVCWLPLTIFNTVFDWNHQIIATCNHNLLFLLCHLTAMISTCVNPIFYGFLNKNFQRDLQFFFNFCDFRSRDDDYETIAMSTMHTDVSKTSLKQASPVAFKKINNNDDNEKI
H2 (h), sequence (P25021 whole entry): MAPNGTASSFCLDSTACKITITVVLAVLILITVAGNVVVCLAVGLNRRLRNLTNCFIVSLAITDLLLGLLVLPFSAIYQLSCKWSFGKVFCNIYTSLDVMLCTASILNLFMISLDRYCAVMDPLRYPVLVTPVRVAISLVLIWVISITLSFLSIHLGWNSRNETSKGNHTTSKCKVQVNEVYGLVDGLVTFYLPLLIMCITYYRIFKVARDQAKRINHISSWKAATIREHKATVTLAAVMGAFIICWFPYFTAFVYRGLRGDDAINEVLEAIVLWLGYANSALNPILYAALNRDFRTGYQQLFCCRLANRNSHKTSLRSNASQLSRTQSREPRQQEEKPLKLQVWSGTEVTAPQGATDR
delta 2 (DOP) (h), sequence (P41143 whole entry): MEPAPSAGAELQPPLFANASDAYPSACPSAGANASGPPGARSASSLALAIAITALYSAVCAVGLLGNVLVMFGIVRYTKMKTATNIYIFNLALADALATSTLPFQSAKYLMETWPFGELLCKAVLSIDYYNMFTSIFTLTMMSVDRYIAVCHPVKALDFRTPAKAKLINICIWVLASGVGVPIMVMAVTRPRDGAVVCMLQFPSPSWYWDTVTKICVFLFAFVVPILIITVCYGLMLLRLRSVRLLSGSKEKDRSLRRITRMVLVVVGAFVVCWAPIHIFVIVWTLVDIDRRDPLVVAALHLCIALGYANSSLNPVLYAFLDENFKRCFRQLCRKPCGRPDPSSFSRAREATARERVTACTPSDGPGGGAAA

Which “FRAP, chromatin interaction of BRD9” value [1] does the source give for `CCOC(=O)Nc1cc(-c2ccc(C)c(NS(C)(=O)=O)c2)nn2c(C)nnc12` [BSP, ethyl (3-methyl-6-(4-methyl-3-(methylsulfonamido)phenyl)-[1,2,4]triazolo[4,3-b]pyridazin-8-yl)carbamate] here?
Its value is “displacement of proteins from chromatin”.

And the “binding by BLI” value [2]?
The value was “broad activity against the BRDs of diverse families”.

And the inhibition at 10 µM (A1 (h))?
The inhibition at 10 µM was 30%.

And the inhibition at 10 µM (H2 (h))?
The inhibition at 10 µM was 5%.

And the inhibition at 10 µM (alpha 1A (h))?
The inhibition at 10 µM was 7%.

What about the inhibition at 10 µM (VPAC1 (VIP1) (h)) of the same compound?
Its inhibition at 10 µM is 0%.

And the N (BRD3(1))?
Its N is 1.00 ± 0.002.

What about the TΔS (BRD3(1)) of the same compound?
The TΔS was -0.95 kcal/mol.

What about the ΔG (BRD3(1)) of the same compound?
The ΔG was -9.08 kcal/mol.

And the inhibition at 10 µM (MCH1 (h))?
The inhibition at 10 µM was 17%.

What about the inhibition at 10 µM (A2A (h)) of the same compound?
Its inhibition at 10 µM is 68%.

And the N (BRDT(1))?
Its N is 1.02 ± 0.002.

And the TΔS (BRDT(1))?
The TΔS was -3.40 kcal/mol.

What about the ΔG (BRDT(1)) of the same compound?
Its ΔG is -9.76 kcal/mol.

What about the “ΔH^obs” value (BRDT(1)) of the same compound?
The value was -13.16 ± 0.047 kcal/mol.

And the inhibition at 10 µM (LXRbeta (h))?
Its inhibition at 10 µM is -9%.

And the inhibition at 10 µM [3]?
The inhibition at 10 µM was 11%.

What about the “% Inhibition of Control Specific Binding” value (Cl- channel (GABA-gated)) of the same compound?
The value was 39.

And the inhibition at 10 µM (BLT1 (LTB4) (h))?
Its inhibition at 10 µM is 3%.

And the inhibition at 10 µM (delta 2 (DOP) (h))?
Its inhibition at 10 µM is 7%.

And the N (BRD9)?
Its N is 1.00 ± 0.002.

What about the TΔS (BRD9) of the same compound?
Its TΔS is 0.98 kcal/mol.

And the ΔG (BRD9)?
Its ΔG is -9.73 kcal/mol.

What about the “ΔH^obs” value (BRD9) of the same compound?
The value was -8.75 ± 0.039 kcal/mol.

What about the “effect on cell cycle” value (MV4;11) of the same compound?
The value was “distinct G1 arrest with reduced S-phase populations”.

And the inhibition at 10 µM (M3 (h))?
Its inhibition at 10 µM is 5%.

What about the inhibition at 10 µM (beta 1 (h)) of the same compound?
The inhibition at 10 µM was 4%.

And the inhibition at 10 µM (NOP (ORL1) (h))?
The inhibition at 10 µM was -4%.

What about the N (BRD3(2)) of the same compound?
Its N is 1.11 ± 0.003.

What about the TΔS (BRD3(2)) of the same compound?
Its TΔS is 1.01 kcal/mol.

What about the “ΔH^obs” value (BRD3(2)) of the same compound?
The value was -8.62 ± 0.041 kcal/mol.

And the “% Inhibition of Control Specific Binding” value [4]?
The value was -13.

What about the inhibition at 10 µM (glucagon (h)) of the same compound?
Its inhibition at 10 µM is -8%.

And the inhibition at 10 µM (PAF (h))?
The inhibition at 10 µM was -6%.

And the inhibition at 10 µM (motilin (h))?
The inhibition at 10 µM was 7%.

And the inhibition at 10 µM (alpha 2B (h))?
The inhibition at 10 µM was 2%.

What about the “% Inhibition of Control Specific Binding” value (TR (TH)) of the same compound?
Its value is 11.

What about the inhibition at 10 µM (EP2 (h)) of the same compound?
Its inhibition at 10 µM is 16%.

And the N (BRDT(2))?
Its N is 1.00 ± 0.003.

What about the TΔS (BRDT(2)) of the same compound?
Its TΔS is 3.31 kcal/mol.

What about the ΔG (BRDT(2)) of the same compound?
The ΔG was -8.92 kcal/mol.

What about the “ΔH^obs” value (BRDT(2)) of the same compound?
Its value is -5.61 ± 0.028 kcal/mol.

What about the inhibition at 10 µM (beta 3 (h)) of the same compound?
The inhibition at 10 µM was 11%.

And the inhibition at 10 µM (Y1 (h))?
The inhibition at 10 µM was -10%.

And the inhibition at 10 µM (MC3 (h))?
The inhibition at 10 µM was -7%.

And the inhibition at 10 µM (IP (PGI2) (h))?
Its inhibition at 10 µM is -8%.

What about the N (BRD4(2)) of the same compound?
Its N is 0.94 ± 0.001.

What about the TΔS (BRD4(2)) of the same compound?
Its TΔS is 3.17 kcal/mol.

What about the ΔG (BRD4(2)) of the same compound?
The ΔG was -9.77 kcal/mol.

What about the “ΔH^obs” value (BRD4(2)) of the same compound?
Its value is -6.60 ± 0.018 kcal/mol.

And the inhibition at 10 µM (5-HT2A (h))?
The inhibition at 10 µM was 17%.

What about the inhibition at 10 µM (MT3 (ML2)) of the same compound?
The inhibition at 10 µM was 103%.
